Measured values published in paper PMC7059199, “Identification and structural insight of an effective PPARγ modulator with improved therapeutic index for anti-diabetic drug discovery” (Chemical Science, 2020).

Tests used:
HFD mice = experiment: Anti-diabetic activity and side effects in HFD mice, 7 weeks; conditions: for expression of Glut4 and Adiponectin in adipose tissue (mRNA) / expression of adipogenic genes PPARγ, AP2, CD36, LPL, C/EBPa and Fasn in adipose tissue (mRNA): (S)-VSP-77 5 mg/kg i.p.
Protocol: HFD mice were injected with (S)- or (R)-VSP-77 for 7 weeks.
Laboratory Animal Co., Shanghai, China) were housed in a temperature-controlled
For chronic treatment, mice were fed high-fat diets (60% calories from fat; Research Diets, New Brunswick, NJ, USA) or standard diets ad libitum. At 14 weeks of age, mice were randomly assigned to
(5 mg/day/kg or 10 mg/kg/day), VSP-77 (5 mg/kg/day) and (S)- or (R)-VSP-77 (5 mg/kg/day) were intraperitoneally injected and INT131 (30 mg/kg/day) was orally treated. The glucose tolerance test (2 g/kg glucose i.p.) and determination of fasting blood glucose and insulin levels were performed after 6 h of starvation. At the end, the animals were anatomized and blood and tissues were collected for further

GST-PPARγ LBD = target: T1, GST-PPARγ LBD (Homo sapiens, UniProt P37231); experiment: LanthaScreen TR-FRET competitive binding assay, PPARγ; conditions: competition of Fluormone (5 nM); 0.5 nM GST-PPARγ LBD
T1 construct: 0.5 nM GST-PPARγ LBD was incubated with 5 nM Fluormone™; purchased Invitrogen
T1 sequence (P37231 238-503 limits assumed): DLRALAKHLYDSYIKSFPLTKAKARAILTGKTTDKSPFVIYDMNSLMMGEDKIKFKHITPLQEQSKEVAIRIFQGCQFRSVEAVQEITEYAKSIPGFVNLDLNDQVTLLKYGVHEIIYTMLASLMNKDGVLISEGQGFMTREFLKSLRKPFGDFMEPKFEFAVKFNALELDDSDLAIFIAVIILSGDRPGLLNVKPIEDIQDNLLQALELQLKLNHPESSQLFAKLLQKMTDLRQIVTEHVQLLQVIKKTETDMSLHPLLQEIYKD
Protocol: LanthaScreen™ TR-FRET assay (Invitrogen) was used for measuring the binding affinities of the ligands. 0.5 nM GST-PPARγ LBD was incubated with 5 nM Fluormone™ and Terbium-coated GST antibody.
Competitive TR -FRET binding assay
The GST PPARγ -LBD was labeled with a terbium-linked antibody and a fluorescent small molecule pan-PPAR ligand (Fluormone™ Pan-PPAR Green, Invitrogen) was used as a tracer that is displaced from the ligand binding domain upon agonist binding.
Excitation of the terbium at 340 nm results in FRET to the fluorescent tracer, with
Tracer displacment results is a loss of FRET signal between the terbium label and the fluorescent tracer.
The inhibition constant (ki) for a competitor was calculated by applying the
Cheng-Prusoff equation as following:
the tracer, [tracer] is the concentration of Fluormone™ Pan-PPAR Green used in the

PPARα = target: T2, PPARα (Homo sapiens, UniProt Q07869); experiment: Competitive TR-FRET assay, PPARα; conditions: at 10 μM
T2 sequence (Q07869 1-468): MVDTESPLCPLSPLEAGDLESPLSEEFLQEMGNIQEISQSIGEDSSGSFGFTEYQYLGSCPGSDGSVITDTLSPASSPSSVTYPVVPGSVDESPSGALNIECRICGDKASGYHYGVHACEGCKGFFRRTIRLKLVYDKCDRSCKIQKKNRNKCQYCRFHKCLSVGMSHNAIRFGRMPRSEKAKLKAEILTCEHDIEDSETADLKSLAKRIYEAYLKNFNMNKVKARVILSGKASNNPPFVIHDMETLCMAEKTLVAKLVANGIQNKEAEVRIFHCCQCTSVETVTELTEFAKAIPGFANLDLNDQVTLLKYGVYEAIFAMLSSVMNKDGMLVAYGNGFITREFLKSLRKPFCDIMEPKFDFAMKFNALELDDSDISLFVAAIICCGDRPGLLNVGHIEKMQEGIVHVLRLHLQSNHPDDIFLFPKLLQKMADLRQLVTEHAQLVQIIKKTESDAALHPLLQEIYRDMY

3T3-L1 cells [1] = experiment: 3T3-L1 adipocyte differentiation assay (Oil Red O staining); assay type: cell-based, mouse; conditions: Rosi 10 μM; 2 days
Protocol: One of the best documented side-effects of the PPARγ agonist drugs is weight gain as PPARγ is the key activator of adipogenesis. To determine whether VSP-77 promotes adipogenesis, we treated mouse fibroblast 3T3-L1 cells with 100 μM of VSP-77. […] Cells were incubated with Oil Red O, which stains adipocytes red.
Fig. 6 3T3-L1 adipocyte differentiation assay. Oil Red O staining of 3T3-L1 fibroblast cells after differentiating with different ligands for 2 days. […]
Adipocyte differentiation assay
The adipocyte differentiation assay was performed with NIH 3T3-L1 preadipocytes obtained from ATCC. The 3T3-L1 preadipocytes were maintained in DMEM containing 10% FBS and antibiotics. For differentiation DMI (Dexamethazone 1 μM, 3-isobutyl-1-methyxanthine (IBMX) 0.5 mM and Insulin167 nM) and 10 μM of rosiglitazone were used as positive controls for the assay. VSP-77 was used at a 100 μM concentration. All the treatments have insulin at 167 nM concentration. Media with DMSO was used as a negative control. Differentiation was induced by treating post-confluent cultures with media containing the respective ligands for two days.
Cells were stained with Oil Red O to estimate the lipid accumulation. The images were analyzed using ImageJ (National Institutes of Health). […]

3T3-L1 cells [2] = experiment: qPCR of adipogenic genes in 3T3-L1 cells; assay type: cell-based, mouse; conditions: 7 days after treatment
Protocol: Encouraged by the above results and to further determine whether VSP-77 activates PPARγ in 3T3-L1 cells, we evaluated the ability of VSP-77 to stimulate PPARγ activity by measuring the mRNA levels of endogenous PPARγ-regulated downstream genes linked to adipogenesis (primers are listed in Table S1 ^†).
Fig. 7 Expression of adipogenic genes in 3T3-L1 cells was analyzed by quantitative PCR (qPCR). Relative mRNA levels of the adipocyte differentiation genes PPARγ, aP2, CD36, LPL, C/EBPα and Fasn. mRNA was extracted from differentiating cells 7 days after treatment (n = 3, error bars = SEM). […]
(average±standard deviation calculated from three separate experiments). […]
Cells were stained with Oil Red O to estimate the lipid accumulation. The images were analyzed using ImageJ (National Institutes of Health).
For real-time PCR analysis, 1-2 μg total RNA was reverse-transcribed using the SuperScript cDNA Reverse Transcription Kit (Invitrogen) with SYBR Green PCR Master Mix (Invitrogen) and gene specific primers (Table S1) using a Roche Light Cycler 480 machine. The relative expression of mRNA was determined after normalization to β-actin level using the ΔΔ-Ct method. […]

[3] = target: hERG potassium ion channel (Homo sapiens, UniProt Q12809); design: method as in PMID 23054723; conditions: read-out: hERG inhibition IC50; cited from earlier work
Sequence of hERG potassium ion channel (Q12809 whole entry): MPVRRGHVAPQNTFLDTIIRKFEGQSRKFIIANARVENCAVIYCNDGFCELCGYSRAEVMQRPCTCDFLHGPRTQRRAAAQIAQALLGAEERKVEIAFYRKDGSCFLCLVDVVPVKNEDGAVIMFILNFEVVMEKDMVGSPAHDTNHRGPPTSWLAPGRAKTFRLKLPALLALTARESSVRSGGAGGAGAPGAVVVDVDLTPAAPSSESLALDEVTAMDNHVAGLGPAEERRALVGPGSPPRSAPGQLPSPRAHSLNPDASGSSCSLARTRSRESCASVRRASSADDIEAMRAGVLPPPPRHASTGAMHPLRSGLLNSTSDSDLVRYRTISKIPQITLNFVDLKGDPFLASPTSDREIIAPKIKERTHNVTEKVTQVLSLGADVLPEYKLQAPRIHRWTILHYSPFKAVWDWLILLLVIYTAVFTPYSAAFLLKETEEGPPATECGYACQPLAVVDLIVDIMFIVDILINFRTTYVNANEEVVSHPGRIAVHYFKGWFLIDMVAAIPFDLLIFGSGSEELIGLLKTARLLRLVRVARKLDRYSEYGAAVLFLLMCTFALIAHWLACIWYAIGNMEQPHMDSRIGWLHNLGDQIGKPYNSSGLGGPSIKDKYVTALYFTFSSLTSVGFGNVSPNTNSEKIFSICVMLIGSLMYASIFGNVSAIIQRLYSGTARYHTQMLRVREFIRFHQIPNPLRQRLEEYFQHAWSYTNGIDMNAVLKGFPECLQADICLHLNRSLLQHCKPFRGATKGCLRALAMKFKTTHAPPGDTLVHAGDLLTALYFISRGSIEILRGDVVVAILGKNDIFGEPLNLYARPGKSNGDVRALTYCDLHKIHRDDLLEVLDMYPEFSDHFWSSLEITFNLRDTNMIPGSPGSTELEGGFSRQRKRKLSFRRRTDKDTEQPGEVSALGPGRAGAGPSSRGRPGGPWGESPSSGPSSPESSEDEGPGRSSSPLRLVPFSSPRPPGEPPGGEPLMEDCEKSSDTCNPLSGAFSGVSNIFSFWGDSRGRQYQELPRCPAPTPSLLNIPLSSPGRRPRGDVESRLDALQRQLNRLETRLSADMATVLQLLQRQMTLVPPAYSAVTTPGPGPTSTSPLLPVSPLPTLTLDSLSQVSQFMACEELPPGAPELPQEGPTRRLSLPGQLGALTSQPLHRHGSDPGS

CCCCCCC[C@H](OCC(=O)O)c1ccc(Cl)cc1 [(S)-VSP-77]
CDK5-mediated Ser-273 phosphorylation of PPARγ in white adipose tissue (HFD mice; 5 mg/kg i.p.): effectively blocked | fasting glucose levels (HFD mice; 5 mg/kg i.p.): significant reduction | fasting insulin levels (HFD mice; 5 mg/kg i.p.): significant reduction | fluid retention (HFD mice; 5 mg/kg i.p.): does not promote | expression of Glut4 and Adiponectin in adipose tissue (mRNA) (HFD mice; Rosi 10 mg/kg i.p.): increased | expression of adipogenic genes PPARγ, AP2, CD36, LPL, C/EBPa and Fasn in adipose tissue (mRNA) (HFD mice; Rosi 10 mg/kg i.p.): weakly induced

CCCCCCCCCC(=O)O [DA, decanoic acid, reference compound]
Ki (GST-PPARγ LBD): 50.5 µM

CC(C)(Sc1ccc(CCN(CCCCC2CCCCC2)C(=O)NC2CCCCC2)cc1)C(=O)O [GW7647, reference compound]
binding capability for PPARα (PPARα): ~100%

CN(CCOc1ccc(CC2SC(=O)NC2=O)cc1)c1ccccn1 (centres unmarked) [Rosi, rosiglitazone, reference compound]
% Area stained by Oil Red O (3T3-L1 cells [1]): 37% | expression of adipogenic genes PPARγ, aP2, CD36, LPL, C/EBPα and Fasn (mRNA) (3T3-L1 cells [2]): robustly induced | IC50 [3]: 18.8 µM | body weight gain (HFD mice; (S)-/(R)-VSP-77 5 mg/kg i.p., Rosi 10 mg/kg i.p.): observed | expression of Glut4 and Adiponectin in adipose tissue (mRNA) (HFD mice; Rosi 10 mg/kg i.p.): increased | expression of adipogenic genes PPARγ, AP2, CD36, LPL, C/EBPa and Fasn in adipose tissue (mRNA) (HFD mice; Rosi 10 mg/kg i.p.): robustly stimulated
